Data reported in patent US4069016A, “Assay for bilirubin” (priority 1977, dated 1978).
Where two headings read alike, the source gives them in different places.

How the values were obtained:
Human Serum Albumin [1] = conditions: cited from earlier work
[2] = Molar absorptivity / extinction coefficient; format: physicochemical; conditions: at or near 590 nanometers
Text: Among others, there are various direct spectrophotometric assay techniques for bilirubin which take advantage of the molar absorbtivity inherent in bilirubin. That is, bilirubin is a yellow pigment having a molar absorbtivity of about 5 × 10^4 as measured at 435 nanometers. However, although the molar absorbtivity of bilirubin is high enough to be useful in various direct spectrophotometric solution assay techniques, it is not sufficiently high to produce a quantitative assay for bilirubin using "dry chemistry" analytical test elements. Thus, present-day direct spectrophotometric assay techniques for bilirubin are generally limited to solution assay techniques, particularly if accurate, quantitative results are desired. […] In addition, other materials present in bilirubin-containing biological fluids such as human serum can also cause spectral interferences using such direct spectrophotometric assay methods.
In this Example, a solution assay for bilirubin in accord with the method of the present invention is illustrated. The assay of the present Example is similar to that described in Examples 1 and 2 above, except that the present Example illustrates the use of a colorimetric, rather than a fluorometric, assay using bromophenol blue indicator dye as the detectable ligand in the bilirubin-active complex. […]

HSA [3] = biological target: T1, HSA (Homo sapiens, UniProt P02768); assay: Bromophenol blue-HSA binding and competitive displacement by bilirubin, ultrafiltration, 590 nm
T1 construct: purchased Pentex, Miles Laboratories, Inc
T1 sequence (P02768 25-609): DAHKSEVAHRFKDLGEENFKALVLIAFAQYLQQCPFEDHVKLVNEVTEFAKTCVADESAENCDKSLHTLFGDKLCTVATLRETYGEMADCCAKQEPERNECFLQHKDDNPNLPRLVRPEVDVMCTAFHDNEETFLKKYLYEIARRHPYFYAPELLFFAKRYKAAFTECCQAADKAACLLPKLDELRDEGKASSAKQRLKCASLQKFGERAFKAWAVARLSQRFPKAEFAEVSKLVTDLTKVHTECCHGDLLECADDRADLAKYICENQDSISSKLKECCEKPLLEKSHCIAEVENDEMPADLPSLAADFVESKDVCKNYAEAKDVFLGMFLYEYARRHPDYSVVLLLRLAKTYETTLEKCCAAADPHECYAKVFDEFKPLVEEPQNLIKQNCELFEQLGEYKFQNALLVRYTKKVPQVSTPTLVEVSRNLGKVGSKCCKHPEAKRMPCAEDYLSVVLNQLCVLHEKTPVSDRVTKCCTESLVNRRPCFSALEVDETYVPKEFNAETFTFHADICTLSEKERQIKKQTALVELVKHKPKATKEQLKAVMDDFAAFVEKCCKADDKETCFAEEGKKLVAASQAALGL
Text: In this Example, a solution assay for bilirubin in accord with the method of the present invention is illustrated. […] Using an Amicon Ultraflo Membrane Cone CF-25 (having a molecular weight cutoff of 25,000 daltons) in an ultrafiltration technique as described by U. Kragh-Hansen et. al., Biochim. et Biophys.

[4] = 435 nanometers; cited from earlier work
HSA [5] = biological target: T1, HSA; assay: ANS-HSA complex solution assay, fluorescence (ANS binding and displacement by bilirubin)
Procedure: Where the detectable ligand used in the following Examples was a fluorescent probe, arbitrary fluorescence, F, was recorded both immediately before and after addition of bilirubin (B) to the complex. The difference in these F values (i.e. ΔF) was then expressed as a percentage value by arbitrarily designating the F value for the complex at 100 prior to addition of any bilirubin analyte to the complex (i.e. at zero B concentration). A series of Δ F values were then plotted for a given complex having a constant D/P ratio against a series of liquid test samples containing varying B concentrations. As a result, one obtained a calibration curve for that complex. A liquid test sample containing an unknown amount of B, could then be evaluated by the Δ F value for that sample using the calibrated complex and then locating this Δ F value on the previously prepared calibration curve for the complex.
In this Example, fluorescence of the ANS-albumin complex was obtained by exciting the complex at an excitation maximum of 386 nanometers. […] As is known, the fluorescent probe ANS is highly fluorescent when associated with albumin, but is non-fluorescent when free in solution.
The fluorescence of each of these individual test solutions was monitored as bilirubin-containing test samples were admixed into these individual solutions. […]

Human Serum Albumin [6] = conditions: cited from earlier work; for first order binding constant KA to human serum albumin: Kragh-Hansen et al. 1974

O=C(O)c1ccccc1 [Sodium benzoate]
Binding Constant of primary or high affinity site(s) KA (Human Serum Albumin [1]; pH 7.4, 37° C): 1700 M⁻¹

N[C@@H](Cc1c[nH]c2ccccc12)C(=O)O [L-tryptophan]
Binding Constant of primary or high affinity site(s) KA (Human Serum Albumin [1]; pH 7.4, 2° C): 16000 M⁻¹

C[C@]12CC[C@@H]3c4ccc(O)cc4CC[C@H]3[C@@H]1CC[C@@H]2O [Estradiol]
Binding Constant of primary or high affinity site(s) KA (Human Serum Albumin [1]; pH 7.4, 5° C): 100000 M⁻¹

Polymyzin B sulfate [reference compound]
Binding Constant of primary or high affinity site(s) KA (Human Serum Albumin [1]; pH 7.4, 37° C): < 100 M⁻¹

Cc1noc(NS(=O)(=O)c2ccc(N)cc2)c1C [Sulfisoxazole, reference compound]
Binding Constant of primary or high affinity site(s) KA (Human Serum Albumin [1]; pH 7.4, 37° C): 19000 M⁻¹

C[C@]12CCC(=O)C=C1CC[C@@H]1[C@@H]2[C@@H](O)C[C@]2(C=O)[C@@H](C(=O)CO)CC[C@@H]12 [Aldosterone]
Binding Constant of primary or high affinity site(s) KA (Human Serum Albumin [1]; pH 7.4, 5° C): < 5000 M⁻¹

CCCCCCCCCCCCCCCC(=O)O [palmitate]
Binding Constant of primary or high affinity site(s) KA (Human Serum Albumin [1]; pH 7.4, 23° C): 10^6 M^-1

O=S1(=O)OC(c2cc(Br)c(O)c(Br)c2)(c2cc(Br)c(O)c(Br)c2)c2ccccc21 [bromophenol blue, reference compound]
extinction coefficient [2]: approximately 78,000
Kd (HSA [3]): 0.5 µM
approximate maximum molar binding ratio of bromophenol blue to HSA (HSA [3]; 0.05 M sodium phosphate pH 7.4): about 3.4

C=CC1=C(C)/C(=C/c2[nH]c(Cc3[nH]c(/C=C4\NC(=O)C(C)=C4C=C)c(C)c3CCC(=O)O)c(CCC(=O)O)c2C)NC1=O [Bilirubin]
molar absorbtivity [4]: about 5 × 10^4
reduction in fluorescence of ANS/HSA complexes (displacement of ANS) (HSA [5]; 0.066 mg/dl bilirubin added, pH 7.4): drastic reduction in fluorescence
extent of displacement of ANS from albumin (change in fluorescence) versus bilirubin (HSA [5]; 25 micromoles/l ANS, 15 micromoles/l HSA, bilirubin 0.03-0.33 mg/dl): quasi-linearly related to the amount of bilirubin added
inhibition at 0.244 µg/mL (HSA [3]; pH 7.4, read-out: decrease in bromophenol blue binding to HSA, standard test solution about 0.0244 mg bilirubin per deciliter added): ~33%
amount of bromophenol blue competitively displaced from the albumin carrier (HSA [3]; standard test solution approximately 10 mg bilirubin per deciliter, compared with 0.0244 mg/dl): substantially higher amount
Binding Constant of primary or high affinity site(s) KA (Human Serum Albumin [1]; pH 7.4, 25° C): 2.4e+08 M⁻¹
Binding Constant of primary or high affinity site(s) KA (Human Serum Albumin [1]; pH 7.4, 37° C): 1.4e+08 M⁻¹
first order binding constant KA to human serum albumin (Human Serum Albumin [6]): greater than 10^8 M^-1
Kd (Human Serum Albumin [6]; example given for comparison in Example 3, read-out: binding constant to albumin): ~0.01 µM

Nc1ccc(S(=O)(=O)Nc2ncccn2)cc1 [Sulfadiazine, reference compound]
Binding Constant of primary or high affinity site(s) KA (Human Serum Albumin [1]; pH 7.4, 37° C): 820 M⁻¹

O=C1NC(=O)C(c2ccccc2)(c2ccccc2)N1 [Dipheylhydantoin, reference compound]
Binding Constant of primary or high affinity site(s) KA (Human Serum Albumin [1]; pH not given (--), 37° C): 6000 M⁻¹

O=S1(=O)OC(c2ccc(O)cc2)(c2ccc(O)cc2)c2ccccc21 [phenol red, reference compound]
first order binding constant KA to human serum albumin (Human Serum Albumin [6]): about 10^4 M^-1

C[C@]12CC[C@H]3[C@@H](CCC4=CC(=O)CC[C@@]43C)[C@@H]1CC[C@@H]2O [Testosterone]
Binding Constant of primary or high affinity site(s) KA (Human Serum Albumin [1]; pH 7.4, 25° C): 42000 M⁻¹

O=c1[nH]c(=O)c2[nH]c(=O)[nH]c2[nH]1 [Urate]
Binding Constant of primary or high affinity site(s) KA (Human Serum Albumin [1]; pH 7.4, 37° C): 300 M⁻¹

N[C@@H](Cc1cc(I)c(Oc2cc(I)c(O)c(I)c2)c(I)c1)C(=O)O [L-thyroxine]
Binding Constant of primary or high affinity site(s) KA (Human Serum Albumin [1]; pH 7.4, 24° C): 10^6 M^-1

CC(=O)[C@H]1CC[C@H]2[C@@H]3CCC4=CC(=O)CC[C@]4(C)[C@H]3CC[C@]12C [Progesterone]
Binding Constant of primary or high affinity site(s) KA (Human Serum Albumin [1]; pH 7.4, 5° C): 37000 M⁻¹

Gentamicin sulfate [reference compound]
Binding Constant of primary or high affinity site(s) KA (Human Serum Albumin [1]; pH 7.4, 37° C): < 10 M⁻¹
